Measured values: patent US6987122B2, “2-(1H-indol-3-yl)-2-oxo-acetic acid amides with antitumor activity” (Novuspharma S.p.A., priority 2000, dated 2006)

melting point [°C]	SMILES
233 to 237	O=C(Nc1nccs1)C(=O)c1cn(Cc2ccc(F)cc2)c2ccccc12
218 to 220	O=C(Nc1nncs1)C(=O)c1cn(Cc2ccc(F)cc2)c2ccccc12
